The nature of data set [1]: Assessment of the systemic absorption of valnemulin after cutaneous administration (footbath / foot spray) in cattle; HPLC of blood and milk. The format is in vivo. The conditions noted are these: lactating cows, footbath Day 1 and Day 3, foot spray Day 5, 10% valnemulin solution. The text has this: (§1) 2. Assessment of the Systemic Absorption of Valnemulin-Type of Compounds After Cutaneous Administration in Cattle Type of administration: Footbath or directly as spray Test Protocol: Four lactating adult cows with clinical signs of Bovine Digital Dermatitis are recruited to the study. Blood and milk samples are taken before, and at intervals after application of a water/ethanol solution containing 10% valnemulin either as a footbath, or directly by spraying the feet. Test Formulation: Water/ethanol solution containing 10% valnemulin [table] Footbath solutions are prepared fresh each treatment day. A calculated quantity of test product is added to an estimated volume of water, which is placed in the footbath beforehand. The cows are driven individually into the footbath and made to stand there with their feet covered by footbath solution for 2 minutes. Foot spraying involves the use of a hand operated spraying device into which 100 ml of the test product are placed. Said 100 ml are distributed between the feet of each cow and applied directly to the lower leg areas and around and underneath each foot. Valnemulin content of samples is determined by a validated High Performance Liquid Chromatography (HPLC) method. Day 1; a.m. milking samples (50 ml/sample) are taken before the first treatment, thus serving as control measurements. […]

Data set [2] is described as follows: Additional experiments: topical application as a spot on, tissue amounts, cattle. Type of data set: in vivo.
The test system of data set [3] is Bovine Digital Dermatitis. The experiment in a line: Footbath / foot spray treatment of lactating cows with clinical signs of Bovine Digital Dermatitis (footrot). The conditions noted are these: four lactating cows; footbath Day 1 and Day 3, foot spray Day 5; 10% valnemulin solution; after one week. Type of data set: in vivo, cattle. The protocol:
as §1, with “Disease: Footrot” for “2. Assessment of the Systemic Absorption of Valnemulin-Type of Compounds After Cutaneous Administration in Cattle”, “feet.” for “feet. Test Formulation: Water/ethanol solution containing 10% valnemulin [table]”, “foot.” for “foot. Valnemulin content of samples is determined by a validated High Performance Liquid Chromatography (HPLC) method. Day 1; a.m. milking samples (50 ml/sample) are taken before the first treatment, thus serving as control measurements.”

Data set [4] is described as follows: Preliminary test: transdermal study in pigs (tissue, bile and plasma concentrations after cutaneous administration). The format is in vivo. The conditions noted are these: 2 × 25 mg/kg of body weight. As to the method: 1. Preliminary Test: Transdermal Study in Pigs [table] The test solution is administered cutaneously to the skin of the animal and the […], lung, skin, bile and plasma concentrations are determined. For determining the concentrations (μg/ml of plasma or g of tissue) a calibration curve of valnemulin in plasma is used. These investigations are not meant to determine the exact values but to provide only a yes or no answer.

Data set [5] in a line: Additional experiments: topical application as a spot on, tissue amounts, pigs. Type of data set: in vivo.
[6] abbreviates: Animal No 1, water solution containing 10% valnemulin.
The mark [7] stands for this setting: Animal No 2, 40% ethanol/water solution containing 10% valnemulin.

In the case of `C=C[C@]1(C)C[C@@H](OC(=O)CSC(C)(C)CNC(=O)[C@H](N)C(C)C)[C@]2(C)[C@H](C)CC[C@]3(CCC(=O)[C@H]32)[C@@H](C)[C@@H]1O` [valnemulin], in data set [1], the “valnemulin concentrations in blood samples” value was “found in most milk and blood samples”; the “valnemulin concentrations in milk samples” value was “found in most milk and blood samples”. The “amounts of active ingredient found in tissues (brain, liver, muscle, spleen, lung)” value in data set [2] is “fairly high amounts”. Also, in data set [3], the “symptoms of footrot after treatment” value was “none of the treated cows shows any symptoms of footrot”. In data set [4] (setting [6]), the bile concentration was 0.155 μg/ml of plasma or g of tissue, the liver concentration is 0.175 μg/ml of plasma or g of tissue, the lung concentration is given as 0.916 μg/ml of plasma or g of tissue and the “plasma concentration 3 hours after 1st application” value was “<limit of detection”. For the same compound, in data set [4] (setting [6]), the “plasma concentration 6 hours after 1st application” value was “<limit of detection” and the skin concentration is recorded as 39.056 μg/ml of plasma or g of tissue. For the same compound, in data set [4] (setting [7]), the bile concentration entry is on record as “<limit of detection”, the liver concentration is 0.132 μg/ml of plasma or g of tissue, the lung concentration was 0.353 μg/ml of plasma or g of tissue and the “plasma concentration 3 hours after 1st application” value is on record as “<limit of detection”. Further, in data set [4] (setting [7]), the “plasma concentration 6 hours after 1st application” value was 0.07 μg/ml of plasma or g of tissue and the skin concentration is 6.965 μg/ml of plasma or g of tissue. Moreover, in data set [5], the “amounts of active ingredient found in tissues (brain, liver, muscle, spleen, lung)” value is given as “fairly high amounts”.

These data come from patent US6852756B1, “Use of pleuromutilin derivatives for transdermal treatment of bacterial diseases” (Novartis Animal Health US Inc., priority 1999, dated 2005).
